Common to all, as to type: in vivo
Experiment [1] concerns Cotton Aphid (aphis gossypii, Mixed Life Stages). The experiment can be described thus: Cotton aphid (aphis gossypii, mixed life stages), cotyledon dip test. As to conditions: 120 h, mortality counts after 5 days, in comparison with untreated controls. The text has this:
(§1) The active compounds were formulated in 50:50 (vol:vol) acetone:water and 100 ppm Kinetica™ surfactant.
Cotton plants at the cotyledon stage (one plant per pot) were infested by placing a heavily infested leaf from the main colony on top of each cotyledon. The aphids were allowed to transfer to the host plant overnight, and the leaf used to transfer the aphids was removed. The cotyledons were dipped in the test solution and allowed to dry. After 5 days, mortality counts were made.

In experiment [2] the test system is Green Peach Aphid (Myzus persicae, Mixed Life Stages). Kind of experiment: Green peach aphid (Myzus persicae, mixed life stages), pepper leaf dip test. As to conditions: foliar, 120 h, after 5 days, in comparison with untreated controls.
Text: as §1
Pepper plants in the 2nd leaf-pair stage (variety ‘California Wonder’) were infested with approximately 40 laboratory-reared aphids by placing infested leaf sections on top of the test plants. The leaf sections were removed after 24 hr. The leaves of the intact plants were dipped into gradient solutions of the test compound and allowed to dry. Test plants were maintained under fluorescent light (24 hour photoperiod) at about 25° C. and 20-40% relative humidity. Aphid mortality on the treated plants, relative to mortality on check plants, was determined after 5 days.

For experiment [3], the system named is Cowpea Aphid (aphis craccivora). Kind of experiment: Cowpea aphid (aphis craccivora), spray on potted cowpea plants. As to conditions: population reduction assessed after 24, 72 and 120 hours, in comparison with untreated controls. The method, then:
The active compounds were formulated in 50:50 (vol:vol) acetone:water. The test solution was prepared at the day of use.
Potted cowpea plants colonized with 100-150 aphids of various stages were sprayed after the pest population had been recorded. Population reduction was assessed after 24, 72, and 120 hours.

Experiment [4] concerns Silverleaf Whitefly (bemisia argentifolii, adult). Kind of experiment: Silverleaf whitefly (bemisia argentifolii, adult), cotton cotyledon dip test. As to conditions: 72 h, 3 days after treatment, in comparison with untreated controls. The method, then:
as §1
Selected cotton plants were grown to the cotyledon state (one plant per pot). The cotyledons were dipped into the test solution to provide complete coverage of the foliage and placed in a well-vented area to dry. Each pot with treated seedling was placed in a plastic cup and 10 to 12 whitefly adults (approximately 3-5 day old) were introduced. The insects were collected using an aspirator and an 0.6 cm, non-toxic Tygon® tubing (R-3603) connected to a barrier pipette tip. The tip, containing the collected insects, was then gently inserted into the soil containing the treated plant, allowing insects to crawl out of the tip to reach the foliage for feeding. The cups were covered with a reusable screened lid (150 micron mesh polyester screen PeCap from Tetko Inc). Test plants were maintained in the holding room at about 25° C. and 20-40% relative humidity for 3 days avoiding direct exposure to the fluorescent light (24 hour photoperiod) to prevent trapping of heat inside the cup. Mortality was assessed 3 days after treatment of the plants.

Experiment [5] concerns Vetch Aphid (Megoura viciae). The experiment can be described thus: Vetch aphid (Megoura viciae), bean leaf disk microtiterplate test. The note with it: foliar, 144 h, concentration of the test solution 2500 mg/L, 6 days. The method, then:
The active compounds were formulated in 1:3 (vol:vol) DMSO:water with different concentrations of formulated compounds.
Bean leaf disks were placed into microtiterplates filled with 0.8% agar-agar and 2.5 ppm OPUS™. The leaf disks were sprayed with 2.5 μl of the test solution and 5 to 8 adult aphids were placed into the microtiterplates which were then closed and kept at 23±1° C. and 50±5% relative humidity under fluorescent light for 6 days. Mortality was assessed on the basis of vital, reproduced aphids. Aphid mortality and fecundity was then visually assessed.

Experiment [6] deals with Mediterranean Fruitfly (Ceratitis capitata). Kind of experiment: Activity against Mediterranean fruitfly (Ceratitis capitata), insect diet microtiter plate test. As to conditions: 120 h, eggs treated with 2500 ppm, egg and larval mortality after 5 days. The protocol:
The active compounds were formulated in 1:3 (vol:vol) DMSO:water.
For evaluating control of Mediterranean fruitfly the test unit consisted of microtiter plates containing an insect diet and 50 to 80 C. capitata eggs.
Different concentrations of formulated compounds were sprayed onto the insect diet at 5 μl, using a custom built micro atomizer, at two replications. After application, microtiter plates were incubated at 28±1° C. and 80±5% relative humidity for 5 days. Egg and larval mortality was then visually assessed.

The next experiment has as its system Bean Aphid (Aphis fabae). Kind of experiment: Bean aphid (Aphis fabae), nasturtium plant dip test. As to conditions: 72 h, after 3 days, in comparison with untreated controls.
Text: as §1
Nasturtium plants grown in Metro mix in the 1st leaf-pair stage (variety ‘Mixed Jewel’) were infested with approximately 2-30 laboratory-reared aphids by placing infested cut plants on top of the test plants. The cut plants were removed after 24 hr. Each plant was dipped into the test solution to provide complete coverage of the foliage, stem, protruding seed surface and surrounding cube surface and allowed to dry in the fume hood. The treated plants were kept at about 25° C. with continuous fluorescent light. Aphid mortality is determined after 3 days.

In experiment [7] the test system is Southern Armyworm (spodoptera eridania, 2nd instar larvae). The experiment can be described thus: Southern armyworm (spodoptera eridania, 2nd instar larvae), lima bean leaf dip test. The note with it: foliar, 96 h, at 4 days, in comparison with untreated controls. The method, then: as §1
A pair of first true leaves of Sieva lima bean was dipped in the test solution and allowed to dry. The leaf was then placed in a plastic perforated zip enclosure bag and ten 2nd instar larvae were added. At 4 days, observations were made of mortality and reduced feeding.

In experiment [8] the test system is Boll Weevil (Anthonomus grandis). Kind of experiment: Boll weevil (Anthonomus grandis), insect diet microtiter plate test. The note with it: 120 h, concentration of the test solution 2500 mg/L, egg and larval mortality after 5 days. The method, then: The compounds were formulated in 75:25 (vol:vol) water:DMSO.
For evaluating control of boll weevil (Anthonomus grandis) the test unit consisted of 24-well-microtiter plates containing an insect diet and 20-30 A. grandis eggs. Different concentrations of formulated compounds were sprayed onto the insect diet at 20 μl, using a custom built micro atomizer, at two replications. After application, the microtiter plates were incubated at 23±1° C. and 50±5% relative humidity for 5 days. Egg and larval mortality was then visually assessed.

Consider `CCn1ncc(C(=O)N(C)c2cccnc2)c1C` [Compound 180], for which the mortality at 300 ppm in [1] was at least 75%; in [2], at least 50%; in experiment [3], at least 75%; in experiment [4], at least 50%.

On to `CCn1cc(C(=O)Nc2cccnc2)c(C(F)F)n1` [Compound 181], for which the mortality at 300 ppm is at least 75% in experiment [1], at least 50% in experiment [2] and at least 75% in experiment [3]. The mortality at 2500 µg/mL in [5] is at least 80%. This compound also came in with a mortality at 2500 ppm in experiment [6] of 50%.

On to `Cc1c(C(=O)Nc2cccnc2)cnn1-c1ccc(Cl)cc1` [Compound 142], for which the mortality at 300 ppm in experiment [1] was at least 75%; in experiment [2], at least 50%; in experiment [3] it was at least 75%. This compound also yielded a mortality at 10 ppm with Bean Aphid (Aphis fabae) of at least 90%. For the same compound, the mortality at 2500 µg/mL in [5] was at least 80%.

For the compound `Cn1ncc(C(=O)Nc2cccnc2)c1C1CC1` [Compound 89], the mortality at 300 ppm in [1] is at least 75%; in experiment [2], at least 50%; in [3], at least 75%; in experiment [4], at least 50%. In [5], this compound returned a mortality at 2500 µg/mL of at least 80%.

In the case of `CCn1cc(C(=O)N(C)c2cccnc2)c(C(F)(F)F)n1` [Compound 183], the values for the mortality at 300 ppm in experiment [1], in experiment [2] and in experiment [3] were at least 75%, at least 50% and at least 75%, respectively. For the same compound, the mortality at 2500 µg/mL in experiment [5] was at least 80%. Also, in experiment [6], the mortality at 2500 ppm came out at 50%.

With `CCCc1c(C(=O)Nc2cccnc2)cnn1-c1ccc(Cl)cc1` [Compound 79], the values for the mortality at 300 ppm in experiment [2], in experiment [3] and in experiment [7] were at least 50%, at least 75% and at least 50%, respectively. Moreover, in [6], the mortality at 2500 ppm was found to be 50%.

Turning to `Cc1c(C(=O)Nc2cccnc2)cnn1-c1ccc([N+](=O)[O-])cc1` [Compound 231], in experiment [5], the mortality at 2500 µg/mL was at least 80%. In addition, the mortality at 2500 ppm in experiment [6] worked out at 50%.

Turning to `O=C(Nc1cccnc1)c1cn(CC(F)F)nc1C(F)(F)F` [Compound 232], the mortality at 2500 µg/mL in experiment [5] was at least 80%. Moreover, the mortality at 2500 ppm in experiment [6] was found to be 50%.

Take `O=C(Nc1cccnc1)c1cn(-c2ccc(Cl)cc2)nc1C(F)(F)F` [Compound 73]: the mortality at 300 ppm in experiment [1] is at least 75%; in experiment [2], at least 50%; in experiment [3] it was at least 75%; in [4] it was at least 50%. Moreover, the mortality at 2500 µg/mL in [5] is at least 80%.

As to `CC(=O)N(C(=O)c1cn(C)nc1C(F)(F)F)c1cccnc1` [Compound 134], the mortality at 300 ppm was at least 75% in experiment [1], at least 50% in [2], at least 75% in experiment [3] and at least 50% in experiment [4]. In [5], the mortality at 2500 µg/mL is at least 80%.

As to `CCN(C(=O)c1cn(C)nc1C(F)(F)F)c1cccnc1` [Compound 127], the values for the mortality at 300 ppm in experiment [1] and in [2] were at least 75% and at least 50%, respectively. In addition, the mortality at 10 ppm in the experiment with Bean Aphid (Aphis fabae) was at least 90%. The same compound registered a mortality at 2500 µg/mL in experiment [5] of at least 80%.

With `O=C(Nc1cccnc1)c1cnn(-c2cccc(Cl)c2)c1C(F)F` [Compound 157], the mortality at 300 ppm in [1] was at least 75%; in experiment [2], at least 50%; in experiment [3] it was at least 75%; in [7] it was at least 50%. Further, the figures for the mortality at 2500 µg/mL in experiment [5] and in experiment [8] were at least 80% and 100%, respectively.

Regarding `Cc1c(C(=O)N(C)c2cccnc2)cnn1C(F)F` [Compound 220], the mortality at 300 ppm in experiment [1] was at least 75%; in [2] it was at least 50%; in [3], at least 75%; in [7] it was at least 50%. For the same compound, the results for the mortality at 2500 µg/mL in experiment [5] and in experiment [8] were at least 80% and 100%, respectively.

Take `Cn1ncc(C(=O)Nc2cccnc2)c1Cl` [Compound 83]: the mortality at 300 ppm is at least 75% in experiment [1], at least 50% in [2], at least 75% in experiment [3] and at least 50% in [4].

As to `CN(C(=O)c1cn(CC(F)F)nc1C(F)(F)F)c1cccnc1` [Compound 234], the mortality at 2500 µg/mL in experiment [5] was at least 80%; in [8], 100%. This compound showed a mortality at 2500 ppm in experiment [6] of 50%.

Turning to `O=C(Nc1cccnc1)c1cnn(Cc2ccccc2)c1` [Compound 82], the mortality at 300 ppm was at least 75% in [1], at least 50% in [2], at least 75% in [3] and at least 50% in experiment [4].

On to `Cn1ncc(C(=O)Nc2cccnc2)c1C(F)(F)F` [Compound 109], for which the mortality at 300 ppm is at least 75% in [1], at least 50% in experiment [2], at least 75% in experiment [3] and at least 50% in experiment [4]. The mortality at 2500 µg/mL in experiment [5] was at least 80%; in [8], 100%.

Compound `O=C(Nc1cccnc1)c1cn[nH]c1-c1cccs1` [Compound 77] had a mortality at 300 ppm in [7] of at least 50%. Further, the mortality at 2500 ppm in experiment [6] worked out at 50%.

The compound `Cn1cc(C(=O)Nc2cccnc2)c(C(F)(F)F)n1` [Compound 100] returned a mortality at 300 ppm in [4] of at least 50%. In [5], this compound returned a mortality at 2500 µg/mL of at least 80%. This compound also showed a mortality at 2500 ppm in [6] of 50%.

`CN(C(=O)c1cnn(C(F)F)c1C(F)F)c1cccnc1` [Compound 189]: the mortality at 300 ppm in [1] was at least 75%; in [2], at least 50%; in [3], at least 75%; in experiment [7], at least 50%. For the same compound, the values for the mortality at 2500 µg/mL in experiment [5] and in experiment [8] were at least 80% and 100%, respectively.

Turning to `CCc1c(C(=O)Nc2cccnc2)cnn1CC` [Compound 184], the mortality at 300 ppm in experiment [1] is at least 75%; in experiment [2], at least 50%; in experiment [3] it was at least 75%. The compound also yielded a mortality at 2500 µg/mL in [5] of at least 80%. In experiment [6], the mortality at 2500 ppm amounted to 50%.

Consider `CCn1cc(C(=O)Nc2cccnc2)cn1` [Compound 102], for which the mortality at 300 ppm in [1] is at least 75%; in [2], at least 50%; in [3], at least 75%; in experiment [4], at least 50%. Moreover, the mortality at 2500 µg/mL in [5] was at least 80%; in experiment [8] it was 100%.

Turning to `Cc1nn(C(F)F)cc1C(=O)N(C)c1cccnc1` [Compound 229], the mortality at 300 ppm in experiment [1] is at least 75%; in experiment [2] it was at least 50%; in experiment [4], at least 50%.

As for `CCCN(C(=O)c1cn(C)nc1C(F)(F)F)c1cccnc1` [Compound 129], the mortality at 10 ppm in the experiment on Bean Aphid (Aphis fabae) is at least 90%.

Compound `Cc1nn(-c2ccccc2)cc1C(=O)Nc1cccnc1` [Compound 84] showed a mortality at 300 ppm in [4] of at least 50%. In addition, in [6], the mortality at 2500 ppm turned out to be 50%.

As usually defined, the mortality is the share of the test organisms that died. High values mean a strong lethal effect, low ones a weak lethal effect.

Source of the values: patent US8642597B2, “Pyrazole compounds for controlling invertebrate pests” (BASF SE, priority 2007, dated 2014).
